One data set concerns lung and liver. Set-up: species or system BALB/cnu-nu athymic nude mice. The following applies: mouse, in vivo, iv, 4 mg/kg. From the text: Terminal deoxynucleotidyl teansferase-mediated dUTP nick end-labeling (TUNEL) were examined in the lung and liver using TdT In Situ Apoptosis Detection Kit (Trevigen, Gaithersburg, Maryland, USA) following the manufacturer's protocols. Apoptosis cells were identified as having brown nuclei under a light microscope. The number of apoptosis cells was counted in five random fields (×400) in a blinded manner.

For data set [1], the system named is MDA-MB-231 cells. The data set can be described thus: DNA ladder (DNA fragmentation) assay. The class given is cell-based, human. Conditions: MDA-MB-231, 24 h; CDAK 212 µg/ml, CRLK 200 µg/ml; 1% agarose gel. As to the method: (§1) For DNA fragmentation analysis, DAN of cells which were treated with CDAK (190 µg/ml and 212 µg/ml), CRLK (200 µg/ml) and control (PBS) for 24 h were extracted using a selective apoptotic DNA ladder extraction KIT (Biomed Company, Beijing, China) and were analyzed using 1% agarose gels. DNA was visualized with ethidium bromide staining.

Data set [2] has as its system MCF-7 cells. The data set can be described thus: DNA ladder (DNA fragmentation) assay. Conditions: MCF-7, 24 h; CDAK 190 µg/ml, CRLK 200 µg/ml; 1% agarose gel. The class given is cell-based, human. On the procedure:
as §1

Data set [3] relates to MDA-MB-231 xenograft. The data set can be described thus: Tumor angiogenesis, anti-CD105 immunohistochemistry (microvessel density). It is filed as in vivo, BALB/cnu-nu athymic nude mice. The following applies: 4 mg/kg intravenously, tumor sections, P<0.05. As to the method:
Tumor-bearing athymic nude mice were sacrificed and the weights of the tumors were recorded. The tumor tissue, liver as well as lung tissues of mice were paraffin-embedded. The tumor paraffin sections were incubated for 10 minutes with 3% H2O2 deionized water to eliminate the endogenous peroxidase activity, washed in PBS three times for five minutes, 5% goat serum was added for 15 minutes, then incubated with mouse monoclonal CD105 antibody (Abcam, Cambridge, UK) at 4°C overnight and washed with PBS three times for five minutes. The biotin-labeled goat anti-mouse IgG were incubated with sections at 37°C for 15 minutes, and then the sections were washed by PBS three times for five minutes. Horseradish peroxidase-avidin enzyme working solution was added at 37°C for 15 minutes and washed with PBS. DAB was added to develop the color, and the nuclei were counterstained mildly with hematoxylin. The liver and lung paraffin sections were stained with hemaetoxylin and eosin (HE) and were independently evluated by two pathologists.

Data set [4] deals with MDA-MB-231 xenograft. The data set can be described thus: MDA-MB-231 xenograft growth in athymic nude mice. The class given is in vivo, BALB/cnu-nu athymic nude mice. The following applies: 4 mg/kg intravenously, three times a week for three weeks, five mice per group. On the procedure:
The experiment was approved by the Animal Care and Use Committee of Xi'an Jiaotong University. MDA-MB-231 cells (2×10^6) were injected subcutaneously into the right flank of 6- to 9-week-old female BALB/cnu-nu athymic nude mice (Shanghai Silaike Laboratory Animal Co., Ltd, Shanghai, China) weighing 18 to 20 g. When the tumor reached 60 mm^3 in size, the mice were randomized into three groups: (1) CDAK (4 mg/kg); (2) CRLK (4 mg/kg); and (3) saline (control). They were then injected intravenously (50 µL/injection) three times a week for three weeks. Tumor volume was measured three times a week using calipers to calculate the tumor size using the following formula: length×width^2×0.5. All values are expressed as the mean ± SD.
Tumor-bearing athymic nude mice were sacrificed and the weights of the tumors were recorded. The tumor tissue, liver as well as lung tissues of mice were paraffin-embedded. The tumor paraffin sections were incubated for 10 minutes with 3% H2O2 deionized water to eliminate the endogenous peroxidase activity, washed in PBS three times for five minutes, 5% goat serum was added for 15 minutes, then incubated with mouse monoclonal CD105 antibody (Abcam, Cambridge, UK) at 4°C overnight and washed with PBS three times for five minutes. […]

Data set [5] relates to MDA-MB-231 cells. The data set can be described thus: Cell cycle, BrdU/PI flow cytometry. The class given is cell-based, human. The following applies: MDA-MB-231, 24 h, CDAK 212 µg/ml, CRLK 200 µg/ml. On the procedure:
(§2) After being incubated with CDAK (190 µg/ml and 212 µg/ml), CRLK (200 µg/ml) and control (PBS) for 24 h, 20 µM BrdU (Sigma-Aldrich, St. Louis, MO, USA) was added to the media for 30 min. Cells were harvested and fixed in iced-cold 75% ethanol for 24 h. Then, the cells were treated with 4N HCL, neutralized by 0.1 M borax, and washed with PBS containing 0.05% bovine serum albumin (BSA). The cells were incubated sequentially with anti-BrdU antibody (santa cruz biotechnology, California, US) and FITC-conjugate anti-mouse secondary antibody in the presence of 0.5%BSA and 0.5%Tween-20. Cells were added PI (50 µg/ml) and RNase A (50 µg/ml) for 20 minutes and analyzed by flow cytometry. Select a forward scatter (FSC) versus side scatter (SSC) window defined single cells and exclude cell doublets.

Data set [6] deals with MCF-7 cells. The data set can be described thus: Cell cycle, BrdU/PI flow cytometry. It is filed as cell-based, human. The following applies: MCF-7, 24 h, CDAK 190 µg/ml, CRLK 200 µg/ml. As to the method: as §2
Data set [7] has as its system MDA-MB-231 cells. It is filed as cell-based, human. As to the method: (§3) The MCF-7 and MDA-MB-231 cells were cultured in 96-well plates at a density of 5×10^4 cells/well. CDAK and CRLK were added to different wells, ranging from 10 µg/ml to 200 µg/ml, respectively. After 24 h, 48 h and 72 h, 3-[4,5-dimethylthiazol- 2-yl]-2,5-diphenyltetrazolium bromide (MTT; Sigma-Aldrich, St. Louis, MO, USA) was added to each well and incubated for 4 h. The MTT was dissolved in 200 µL of Dimethyl sulfoxide (DMSO). Absorbance was detected using a microplate reader at 490 nm. Wells without peptides were used to control cell viability, representing 100% cell survival. Wells without cells were used for the blank of the spectrophotometer.

The subject of data set [8] is MCF-7 cells. It is filed as cell-based, human. As to the method: as §3
For a further data set, the system named is HUVEC. The following applies: MTT, 24 h.
A further data set deals with HFF. The following applies: MTT, 24 h.

*1 amine or outer side, *2 acyl side, *3 side chain or, on linkers, in order; H or OH if unused. Where a SMILES comes first, the peptide text is derived from it. Bridges are numbered along the chain shown (N, C = ends). [ ]: non-standard residue; d: D form. βAsp = O=C(O)[C@H](CC(=O)[*:2])N[*:1] Bounds are passed on as bounds.

Consider CRDGCALKAIAKLKLKKLILALK [CRLK], for which the “apoptosis rate (%) in liver” value with lung and liver is listed as 0.35%±0.23. Besides, the “apoptosis rate (%) in lung” value in the data set with lung and liver stood at 0.17±0.01%. In addition, the “formation of DNA nucleosome ladder” value in the data set on MDA-MB-231 cells [1] and with MCF-7 cells [2] was “no DNA ladder was detected” throughout. Further, the “inhibition of angiogenesis (microvessel density, anti-CD105)” value in the data set with MDA-MB-231 xenograft [3] is “not”. Moreover, the “tumor volume compared with control group” value in the data set with MDA-MB-231 xenograft [4] was “did not reach a statistically significance”. In addition, the “cells in S phase” value in the data set on MDA-MB-231 cells [5] was 23.3%; with MCF-7 cells [6] it was 19.7%.
For `CC[C@H](C)[C@H](NC(=O)[C@H](CC(C)C)NC(=O)[C@H](CC(C)C)NC(=O)[C@@H]1CSSC[C@H](N)C(=O)N[C@H](C(=O)O)CC(=O)NCC(=O)N[C@@H](CCCNC(=N)N)C(=O)N1)C(=O)N[C@H](C(=O)N[C@@H](CCCCN)C(=O)N[C@@H](CC(C)C)C(=O)N[C@@H](C)C(=O)N[C@@H](CCCCN)C(=O)N[C@@H](CC(C)C)C(=O)N[C@@H](C)C(=O)N[C@@H](CCCCN)C(=O)N[C@@H](CCCCN)C(=O)N[C@@H](CC(C)C)C(=O)N[C@@H](C)C(=O)N[C@@H](CCCCN)C(=O)N[C@@H](CC(C)C)C(=O)N[C@@H](C)C(=O)N[C@@H](CCCCN)C(=O)O)[C@@H](C)CC` [CDAK] (H-C[βAsp]GRCLLIIKLAKLAKKLAKLAK-OH; disulfide 1-5), the “concentration with significant cytotoxicity” value in the data set on MDA-MB-231 cells [7] and in the data set with MCF-7 cells [8] was > 40000 ng/mL throughout. Further, the “IC50 (peptide concentration that induces 50% inhibition of cell growth)” value in the data set on MDA-MB-231 cells [7] (MDA-MB-231, MTT, 24 h) was 212 µg/mL; with MCF-7 cells [8] (MCF-7, MTT, 24 h) it was 190 µg/mL; in the data set with HUVEC, 861 µg/mL; in the data set on HFF, 912 µg/mL. Moreover, the “apoptosis rate (%) in liver” value with lung and liver was 0.38%±0.14. The “apoptosis rate (%) in lung” value with lung and liver came out at 0.16±0.02%.
